Results from patent US7241763B2, “3-furanyl analogs of toxoflavine as kinase inhibitors” (priority 2002, dated 2007).

How the values were obtained:
AKT3 [1] = biological target: T1, AKT3 (Homo sapiens, UniProt Q9Y243); test: Cellular inhibition of AKT3 using an ELISA (AKT cel, Ex. C6); type: cell-based; parameters: endogenous in cells; host or cells: MDA-MB 231; details: MDA-MB 231 cells, phosphorylated MAPK ELISA, 30 minutes with compound; read-out: AKT cel (Ex. C6): pIC50 values (converted)
Procedure: Cellular Inhibition of AKT3 using an ELISA
The human breast adenocarcinoma cell line (MDA-MB 231) was used in an phosphospecific antibody cell ELISA (PACE) to assess the inhibitory effect of the compounds on AKT3 mediated phosphorylation of mitogen-activated protein kinase (MAPK). In the experiments the MDA-MB 231 cells were serum starved for 24 hours (5% CO2; 37° C.). Subsequently, the cells are incubated at room temperature for 2 hours with 20 μM (in serum free medium) of the phosphatidylinositol 3-kinase inhibitor Ly294002 (Alexis, San Diego, Calif.) prior to the incubation for 30 minutes with the compounds at a final concentration ranging from 1 nM to 3 μM. After fixation (with 4.5% formaldehyde) for 20 minutes and washing with PBS (0.1M) the cells were successively incubated with for 5 minutes with 0.1% Triton X-100 in PBS, for 20 minutes with 0.6% H2O2 and 1 hour with a 2% BSA solution as blocking buffer. […] The OD (490–655 nm) reflected the amount of phosphorylated MAPK and the pIC50 of the compounds was based on their effect with respect to blanco (0.1% DMSO) or an internal reference compound treatment.

AKT3 [2] = biological target: T1, AKT3; test: In vitro inhibition of AKT3 using a filter assay (AKT3 pep., Ex. C3); type: biochemical; details: histone H2B substrate, filter assay, 25° C. 3 hrs; read-out: AKT3 pep. (Ex. C3): pIC50 values (converted)
Procedure: In Vitro Inhibition of AKT3 using a Filter Assay
In the present AKT3 filter assay, a kinase substrate consisting of a fragment of histone H2B, is incubated with the aforementioned protein in the presence of (^33P) radiolabeled ATP. The (^33P)phosporylated substrate binds to a phosphocellulose cation exchange filter, that can easily be removed from the incubation mixture and counted using a microplate scintillation counter.
AKT3 filter assays were performed at 25° C. for 3 hrs in the presence of 25 mM Hepes, pH 7.0, containing 15 mM MgCl2, 1 mM DTT Each assay was performed in a 100 μl reaction volume containing 111 nM AKT3 (diluted in 25 mM Hepes, pH 7.0, containing 15 mM MgCl2, 1 mM DTT) and the 2.5 μM Histone H2B and 2 nM ATP-P^32. The reaction was terminated by addition of 100 μl 75 mM H3PO4, 90 μl of the assay mixture was filtered through Phosphocellulose cation exchange paper. After five times washing with […] H3PO4, the filterpaper was counting in a microtiterplate scintillation counter.

A2780 cell = test: Cytotox/survival of A2780 cell after 3 days; type: cell-based; details: Homo sapiens, 72 h; A2780 ovarian carcinoma cell line, 3 days; read-out: Cytotox/survival of A2780 cell after 3 days - pIC50 values (converted)
Procedure: In an alternative assay, the growth inhibitory effect of the compounds was tested on the ovarian carcinoma cell line A2780 using art known cytotoxicity assays such as LIVE/DEAD (Molecular Probes) or MTT.

CDC25B = biological target: T2, CDC25B (Homo sapiens, UniProt P30305); test: In vitro inhibition of CDC25B using the fluorogenic substrate 3-OMFP (CDC25B WT, Ex. C5); type: biochemical; details: 3-OMFP substrate, 1 hour room temperature; read-out: CDC25B WT (Ex. C5): pIC50 values (converted)
T2 sequence (P30305 1-580): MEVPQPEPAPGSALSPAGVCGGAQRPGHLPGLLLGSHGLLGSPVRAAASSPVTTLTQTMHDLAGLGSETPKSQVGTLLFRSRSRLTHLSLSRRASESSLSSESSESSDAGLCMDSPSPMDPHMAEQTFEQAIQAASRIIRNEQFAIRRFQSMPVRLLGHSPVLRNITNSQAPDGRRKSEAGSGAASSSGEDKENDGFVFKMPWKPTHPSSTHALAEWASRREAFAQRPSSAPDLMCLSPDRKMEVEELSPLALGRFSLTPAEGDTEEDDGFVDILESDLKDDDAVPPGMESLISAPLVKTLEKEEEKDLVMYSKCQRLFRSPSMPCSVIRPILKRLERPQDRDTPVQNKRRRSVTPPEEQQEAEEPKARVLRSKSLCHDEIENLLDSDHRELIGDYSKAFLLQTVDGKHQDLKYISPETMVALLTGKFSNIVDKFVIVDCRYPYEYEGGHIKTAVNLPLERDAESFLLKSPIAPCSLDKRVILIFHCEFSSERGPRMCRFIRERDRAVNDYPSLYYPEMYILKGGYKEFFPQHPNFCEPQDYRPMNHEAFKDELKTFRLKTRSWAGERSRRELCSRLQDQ
Procedure: In Vitro Inhibition of CDC25B using the Fluorogenic Substrate 3-OMFP
CDC25B phosphatase activity is assessed using the fluorogenic substrate 3-O-methyl-flurorescein-phosphate (3-OMFP). The phosphatase-reaction is performed for 1 hour at room temperature in a black microtiter plate in a volume of 50 μl. The reaction mixture contains 4 μg/mlCDC25B, 15 μM (3-OMFP), 15 mM Tris, 50 mM NaCl, 1 mM DTT, 1 mM Na2EDTA at pH 8.0 and 0.1% DMSO solution at 10^−5 M and the hits are tested in the same conditions in a full dose/response from 10^−5, 3.10^−6, 10^−6 and 3.10^−7 M. The enzymatic activity is determined by measuring the fluorescent signal at 485 nm (ex.) and 538 (em.).

cdk4 = cdk4 (Homo sapiens, UniProt P11802); test: In vitro inhibition of cdk4 using a scintillant proximity assay (CDK4 SPA, Ex. C1); type: biochemical; details: GST-pRb substrate, 33P-ATP, room temperature 30 minutes; read-out: CDK4 SPA (Ex. C1): pIC50 values (converted)
Procedure: In Vitro Inhibition of cdk4 using a Scintillant Proximity Assay
The scintillant proximity assay (SPA) is in general described in U.S. Pat. No. 4,568,649 (Amersham Pharmacia Biotech). In the present cdk4 SPA kinase reaction assay, a kinase substrate consisting of a fragment of the restinoblastoma protein (pRb) tagged with […] (GST), is incubated with the aforementioned protein in the presence of (^33P) radiolabeled ATP. (^33P) phosporylation of the substrate is subsequently measured as light energy emitted using glutathione-coated SPA beads (Amersham Pharmacia Biotech) by trapping and quantifying the binding of the GST tagged and radiolabeled restinoblastoma protein.
The CDK4 SPA kinase reaction is performed at room temperature for 30 minutes in a 96-well microtiter plate. For each of the tested compounds a full dose response —10^−5M to 3.10^−9M—has been performed. Flavopiridol was used as reference compound. The 100 μl reaction volume contains 50 mM Hepes, 10 mM NaF, 10 mM MgCl2, 1 mM Na3VO4 pH 7.5, 1.5 μg CDK4-cell lysate/well, 0.2 μM unlabeled ATP, 1.7 μg/well GST-pRb, 1.7 nM AT^33P and 1 μl of a DMSO solution. The reaction is stopped by diluting the reaction mixture ½ with 0.1 mM Na2EDTA, 0.1 mM non-labeled ATP, 0.05% Triton-X-100 and 10 mg/ml glutathion coated beads in PBS. The microtiterplates are centrifuges at 900 rpm for 10 minutes and the amount of phosphorylated (^33P) pRb is determined by counting (1 min/well) in a microtiterplate scintillation counter.

T1 sequence (Q9Y243 whole entry): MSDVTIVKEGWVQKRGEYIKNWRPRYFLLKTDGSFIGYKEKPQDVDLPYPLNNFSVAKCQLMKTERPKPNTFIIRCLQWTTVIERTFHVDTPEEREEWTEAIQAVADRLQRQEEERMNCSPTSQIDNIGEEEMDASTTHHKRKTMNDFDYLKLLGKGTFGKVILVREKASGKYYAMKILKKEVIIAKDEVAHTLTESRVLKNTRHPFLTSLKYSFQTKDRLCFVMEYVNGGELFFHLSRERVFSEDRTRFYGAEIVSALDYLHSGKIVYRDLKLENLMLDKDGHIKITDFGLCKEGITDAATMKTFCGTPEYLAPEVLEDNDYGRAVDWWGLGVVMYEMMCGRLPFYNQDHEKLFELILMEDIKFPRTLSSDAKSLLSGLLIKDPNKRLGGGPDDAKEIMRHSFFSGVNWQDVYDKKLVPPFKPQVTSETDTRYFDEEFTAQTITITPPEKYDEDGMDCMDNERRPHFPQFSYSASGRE
Chain of cdk4 (P11802 whole entry): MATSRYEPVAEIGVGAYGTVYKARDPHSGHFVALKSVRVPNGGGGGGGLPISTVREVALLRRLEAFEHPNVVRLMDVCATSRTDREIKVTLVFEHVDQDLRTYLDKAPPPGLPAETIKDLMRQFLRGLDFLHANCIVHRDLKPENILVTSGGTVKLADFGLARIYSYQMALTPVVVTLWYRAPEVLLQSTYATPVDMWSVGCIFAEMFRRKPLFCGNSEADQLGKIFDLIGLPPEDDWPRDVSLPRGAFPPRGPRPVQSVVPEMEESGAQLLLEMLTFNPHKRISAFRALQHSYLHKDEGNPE
Chain of cdk4 (P24385 whole entry partner): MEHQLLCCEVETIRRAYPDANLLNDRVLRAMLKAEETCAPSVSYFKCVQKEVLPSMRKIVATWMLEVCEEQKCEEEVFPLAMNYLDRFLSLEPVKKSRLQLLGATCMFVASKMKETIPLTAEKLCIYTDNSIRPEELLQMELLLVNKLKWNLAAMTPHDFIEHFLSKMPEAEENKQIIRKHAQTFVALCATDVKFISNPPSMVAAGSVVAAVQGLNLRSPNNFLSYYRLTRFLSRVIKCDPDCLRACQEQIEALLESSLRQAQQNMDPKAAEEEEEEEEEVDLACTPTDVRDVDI

| SMILES | IC50 (AKT3 [1]) [nM] | IC50 (AKT3 [2]) [nM] | IC50 (A2780 cell) [nM] | melting point [°C] | IC50 (CDC25B) [nM] | IC50 (cdk4) [nM] |
| --- | --- | --- | --- | --- | --- | --- |
| CONCc1ccc(-c2ccc(-c3nc4c(=O)n(C)c(=O)nc-4n(C4CCCC4)n3)o2)cc1 [Compound 115] | 74.8 | 48.1 | 46.9 | 140 | 13.2 | – |
| Cn1c(=O)nc2n(C3CCCC3)nc(-c3ccc(-c4ccc(CN5CCCC5)cc4)o3)nc-2c1=O [Compound 131] | 71.8 | 91.4 | 61.7 | 218 | 18.6 | 51.9 |
| Cn1nc(-c2ccc(-c3cccc(CNS(C)(=O)=O)c3)o2)nc2c(=O)n(C)c(=O)nc1-2 [Compound 2] | 209 | 72.6 | 490 | 215.1 to 236.6 | 20.8 | – |
| Cn1c(=O)nc2n(C3CCCC3)nc(-c3ccc(-c4ccc(CNCCO)cc4)o3)nc-2c1=O [Compound 113] | 34.8 | 32.5 | 45.1 | 240 | 14.2 | – |
| Cn1c(=O)nc2n(C3CCCC3)nc(-c3ccc(-c4ccc(S(=O)(=O)N5CCOCC5)cc4)o3)nc-2c1=O [Compound 93] | 471 | 53.6 | 52.8 | > 250 | 11 | – |
| Cn1c(=O)nc2n(C3CCCC3)nc(-c3ccc(-c4ccc(CNC(CO)(CO)CO)cc4)o3)nc-2c1=O [Compound 126] | 272 | 80.2 | 1110 | 241 | 93.8 | 78.3 |
| CN1CCN(C(=O)COc2ccc(-c3ccc(-c4nc5c(=O)n(C)c(=O)nc-5n(C5CCCC5)n4)o3)cc2)CC1 [Compound 119] | 470 | 54 | 48.1 | 252 | 17.6 | 129 |
| Cn1nc(-c2ccc(-c3ccc(S(=O)(=O)N4CCOCC4)cc3)o2)nc2c(=O)n(C)c(=O)nc1-2 | – | – | – | 264.3 to 273.4 | – | – |
| Cn1nc(-c2ccc(-c3cccc(Cl)c3)o2)nc2c(=O)n(C3CCN(Cc4ccccc4)CC3)c(=O)nc1-2 | – | – | – | 210.4 to 241 | – | – |
| CC(c1ccccc1)n1nc(-c2ccc(-c3cccc(Cl)c3)o2)nc2c(=O)n(C)c(=O)nc1-2 (stereo not drawn) [Compound 67] | 716 | 161 | 196 | – | 21.3 | – |
| Cn1nc(-c2ccc(-c3cccc(CN4CCOCC4)c3)o2)nc2c(=O)n(C)c(=O)nc1-2 [Compound 1] | 62.1 | 32.1 | 61.9 | 209.3 to 219.8 | < 1 | – |
| Cn1c(=O)nc2n(C3CCCC3)nc(-c3ccc(-c4ccc(CN5CCC(N)CC5)cc4)o3)nc-2c1=O [Compound 37] | 34.4 | 51.8 | 67.5 | – | – | – |
| Cn1c(=O)nc2n(C3CCCC3)nc(-c3ccc(-c4ccc(CN5CCN(CCO)CC5)cc4)o3)nc-2c1=O [Compound 106] | 102 | 84.3 | 70.3 | 175 | 15.6 | – |
| Cn1c(=O)nc2n(C3CCCC3)nc(-c3ccc(-c4ccc(CN5CCOCC5)cc4)o3)nc-2c1=O [Compound 94] | 63.8 | 57.3 | 53 | 255 | 11.2 | – |
| Cn1c(=O)nc2n(C3CCCC3)nc(-c3ccc(-c4ccc(CN5CCNCC5)cc4)o3)nc-2c1=O [Compound 105] | 98.2 | 115 | 54.5 | > 276.5 | 16.6 | – |
| Cn1c(=O)nc2n(C3CCNCC3)nc(-c3ccc(-c4cccc(Cl)c4)o3)nc-2c1=O [Compound 96] | 3.41 | 62.1 | 10 | > 250 | 9.18 | – |
| CN(CCO)Cc1ccc(-c2ccc(-c3nc4c(=O)n(C)c(=O)nc-4n(C4CCCC4)n3)o2)cc1 [Compound 107] | 95.7 | 39.5 | 60.8 | > 250 | 16 | – |
| Cn1c(=O)nc2n(C3CCCC3)nc(-c3ccc(-c4ccc(CN5CCC(O)CC5)cc4)o3)nc-2c1=O [Compound 103] | 65.5 | 85.5 | 60.8 | > 250 | 16 | – |
| Cn1c(=O)nc2n(C3CCN(S(N)(=O)=O)CC3)nc(-c3ccc(-c4cccc(Cl)c4)o3)nc-2c1=O [Compound 114] | 187 | 45.2 | 110 | > 250 | 15.2 | – |
| Cn1c(=O)nc2n(C3CCCC3)nc(-c3ccc(-c4cccc(CN5CCOCC5)c4)o3)nc-2c1=O [Compound 98] | 111 | 107 | 107 | 155 | 15.1 | – |
| CC(C)n1nc(-c2ccc(-c3ccc(CN4CCOCC4)cc3)o2)nc2c(=O)n(C)c(=O)nc1-2 [Compound 78] | 139 | 57.9 | 79.8 | – | 11.3 | – |
